Experimental data published in US20040067222A1, “Regulation of glucocorticoid concentration” (priority 2001, published 2004).

Tests used:
murine BMD Mφ = experiment: Phagocytosis of apoptotic PMN by BMD Mφ from control and 11β-HSD-/- mice (FIG. 4); type: cell-based; conditions: for enhanced phagocytic effect in 11βHSD-1-/- Mφ: 11βHSD-1-/- macrophages versus control; for phagocytosis of apoptotic PMN by BMD Mφ: 48 hrs treatment, n=4/group
Procedure: Bone Marrow Derived Macrophages (BMD Mφ)—bone marrow was extracted from femurs (C57BI/6 mice) and cultured @4×10^5 cells/ml in DMEM/10% FCS/10% L929 cell line supernatant for 8 days.
(§1) Fresh PMN were isolated from peripheral blood and aged to apoptosis in Teflon wells over 24 hrs in Iscoves/10% autologous serum. Mφ were treated with glucocorticoids as described in the figures. Mφ and aPMN were washed with 1×PBS and interacted in serum free Iscoves for 30 mins at 37° C. The cell layer was gently washed to remove […] cells, fixed in 1×Formalin and stained with PMN selective myeloperoxidase.
Transgenic 11β-HSD^−/− mice have been described previously (Kotelevstev et al., PNAS (USA) 94:14924-14929). Macrophages are isolated from control and 11β-HSD^−/− mice and assayed in a PMN phagocytosis assay as described above.

[1] = test system: murine peripheral macrophages; experiment: Phagocytosis by murine peripheral macrophages (FIG. 3); type: cell-based; conditions: for phagocytosis performance of macrophages: over 24 hours
Procedure: as §1

11β-HSD1 = target: T1, 11β-HSD1 (Mus musculus, UniProt P50172); experiment: Conversion of 3H-11-dehydrocorticosterone to corticosterone in macrophage cultures (FIG. 2b, 2c); type: cell-based
T1 construct: endogenous in cells; host or cells: mouse macrophages (probably thioglycollate-elicited peritoneal macrophages from C57Bl/6 mice)
Excerpt: (§2) Samples were taken at different times and ^3H-cort and ^3H-11-DHC were separated from media samples by thin layer chromatography and analysed by phosphorimaging.

blood glucose levels = conditions: oral administration, two mouse models of diabetes; cited from earlier work
11β-HSD-1 = experiment: 11β-reductase activity in human monocytes differentiating into macrophages, incubated with IL-4 (FIG. 8); type: cell-based; conditions: range of doses of IL-4, human monocytes at initiation of differentiation
Excerpt: Human Monocytes—monocytes isolated from peripheral blood by dextran sedimentation and percoll gradient methods. Monocytes were differentiated to Mφ @4×10^6 cells/ml over 4 days in Iscoves/10% autologous serum.
as §2
The manner in which differentiating macrophages acquire 11β-HSD-1 activity can be influenced by cytokines. In the experiment shown in FIG. 8, human monocytes at the initiation of differentiation into macrophages were incubated with a range of doses of IL-4. 11β-reductase activity was measured by incubation with tritiated 11-DHC.

T1 sequence (P50172 whole entry): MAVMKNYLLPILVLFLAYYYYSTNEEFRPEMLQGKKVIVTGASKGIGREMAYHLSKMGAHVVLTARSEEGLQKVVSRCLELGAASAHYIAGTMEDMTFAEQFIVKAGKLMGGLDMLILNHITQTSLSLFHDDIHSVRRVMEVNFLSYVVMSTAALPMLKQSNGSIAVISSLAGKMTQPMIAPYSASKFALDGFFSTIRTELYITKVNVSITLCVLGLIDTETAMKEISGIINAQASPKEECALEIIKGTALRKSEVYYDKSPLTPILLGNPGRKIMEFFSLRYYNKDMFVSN

Row | Molecule | enhanced phagocytic effect in 11βHSD-1-/- Mφ (murine BMD Mφ) | phagocytosis of apoptotic PMN by BMD Mφ (murine BMD Mφ) | phagocytosis performance of macrophages [1] | other results
1 | C[C@]12CC(=O)[C@H]3[C@@H](CCC4=CC(=O)CC[C@@]43C)[C@@H]1CC[C@@H]2C(=O)CO [11-dehydrocorticosterone] | abrogated | enhancement of phagocytosis | two-fold | conversion of inactive 11-dehydrocorticosterone (A) to active corticosterone (B) (11β-HSD1; mouse macrophages, over a 24 hour period): clearly shows conversion of (A) to (B)
2 | C=CC(C)(C)c1[nH]c2ccccc2c1C1=C(O)C(=O)C(c2c[nH]c3c(CC=C(C)C)cccc23)=C(O)C1=O [L-783,281] |  |  |  | blood glucose levels (blood glucose levels): significant lowering
3 | CC1(C)[C@@H](OC(=O)CCC(=O)O)CC[C@]2(C)[C@H]3C(=O)C=C4[C@@H]5C[C@@](C)(C(=O)O)CC[C@]5(C)CC[C@@]4(C)[C@]3(C)CC[C@@H]12 [carbenoxolone] |  |  |  | effect of inactive 11-dehydrocorticosterone on phagocytosis in the presence of the inhibitor ([1]; macrophages incubated with 11-dehydrocorticosterone plus carbenoxolone): completely abolishes; effect on conversion of (A) to (B) by 11β-HSD1 (11β-HSD1; high concentrations of carbenoxolone): can be blocked
4 | C[C@]12C[C@H](O)[C@H]3[C@@H](CCC4=CC(=O)CC[C@@]43C)[C@@H]1CC[C@@H]2C(=O)CO [corticosterone] | no effect | enhancement of phagocytosis | two-fold | 
5 | IL-4: cytokine capable of inducing 11β-HSD 1 expression |  |  |  | conversion of inert 11-DHC to active corticosterone (11β-reductase activity) (11β-HSD-1): dose-relatedly increased
